# From US20190292524A1, “METHODS FOR CANCER STEM CELL (CSC) EXPANSION” (TRANSGENEX NANOBIOTECH, INC., priority 2016, published 2019)
# Tested on: MCF-7 cells
# Experiment: CD44+ CD24− CSC population in MCF-7 tumoroids by flow cytometry
# Assay type: cell-based, human
# Settings: regular growth medium supplemented with 50 μM cobalt chloride, first-generation MCF-7 tumoroids, day 6
# Procedure: We first plated MCF-7 cells in regular growth medium, consisting of RPMI-1640 supplemented with 10% fetal bovine serum (FBS) and 1× penicillin-streptomycin. The cells were plated at ^˜7,000 cells per scaffold in a 96-well cell culture plate. Fresh medium was added on the second day post-seeding and on day 6 post-seeding, the tumoroids were visualized using NucBlue® dye. After confirming the presence of healthy looking tumoroids, they were detached from the scaffold and processed for single cell suspensions using accutase:citrate solution (1:1 ratio). The single cell suspension was then counted for viability and stained with human anti-CD44-APC-cy7 and anti-CD24-APC. DAPI was used to differentiate the live cells within the single cell population and the CD44^+ CD24^− cell population was determined from the live cells using flow cytometry.
# We first grew first-generation tumoroids, as described before. The first-generation tumoroids were then processed for single-cell suspensions and plated at ^˜8,000 cells per scaffold in a 96-well cell culture plate. […]
# Because hypoxia appears to be required for the maintenance of CSCs, we wanted to test this in our 3D model using cobalt chloride, a known inducer of hypoxia. […] DAPI was used to differentiate the live cells within the single-cell population and the CD44^+ CD24^− cell population was determined using flow cytometry. […]
smiles,measurement,value
[Cl][Co][Cl] [cobalt chloride],change in percentage of CSCs,did not change the percentage of CSCs
